Data on ten compounds can be found in PubChem BioAssay (NCI).

Among the test systems are ACHN renal; CAKI-1 renal; HL-60(TB) leukemia; NCI-H23 lung; NCI-H460 lung; OVCAR-3 ovarian; SF-295 CNS; SK-MEL-28 melanoma; SR leukemia; LOX IMVI melanoma.
Experiment in all cases: DTP human tumour cell line panel, 48 h

The structures appear in SMILES notation. Where “and” joins values, the source holds several entries; their conditions need not be identical. Identical values can stand only once.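 How tested: cells in 96-well plates exposed to compound for 48 hours at five concentrations. GI50 is the concentration that inhibits growth by half. TGI denotes the concentration required for complete inhibition of growth.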 A value given as a limit tells only on which side of the number the result lay.

Turning to `Cc1cc(C)c(C(=O)c2no[n+]([O-])c2C(=O)c2c(C)cc(C)c(Br)c2C)c(C)c1Br`, the TGI with ACHN renal turned out to be 34.9 µM; in the experiment with CAKI-1 renal, 44.8 µM; in the experiment with HL-60(TB) leukemia, 15.2 µM; with NCI-H23 lung, 24.3 µM; with NCI-H460 lung, 45.8 µM; in the experiment on OVCAR-3 ovarian it was 29.5 µM. The TGI turned out to be 33.3 µM in the experiment on SF-295 CNS, 27.5 µM in the experiment on SK-MEL-28 melanoma and 8.42 µM in the experiment with SR leukemia.

On to `CCCCN(CCCC)c1c([N+](=O)[O-])c(=O)nc2ccccn12`, for which the concentration for total growth inhibition (TGI) in the experiment with ACHN renal was over 100 µM; with NCI-H23 lung, over 100 µM; in the experiment on NCI-H460 lung, 79.4 µM; in the experiment on OVCAR-3 ovarian it was over 100 µM; in the experiment on SK-MEL-28 melanoma, 54 µM; in the experiment on SR leukemia, over 100 µM.

With `COc1ccc2c(c1)/C(=C\c1c(Cl)[nH]c3ccc(OC)cc13)C(=O)N2`, the GI50 in the experiment on ACHN renal is 43.3 µM; in the experiment with CAKI-1 renal, over 100 µM; in the experiment with HL-60(TB) leukemia, 26.9 µM; in the experiment on LOX IMVI melanoma, 25.8 µM; in the experiment with NCI-H23 lung it was over 100 µM; in the experiment on NCI-H460 lung it was 50.7 µM. Further, the GI50 with OVCAR-3 ovarian is 29.4 µM; in the experiment on SF-295 CNS, 19.9 µM; in the experiment with SK-MEL-28 melanoma, 15.9 µM. Moreover, the TGI was over 100 µM with ACHN renal; over 100 µM with CAKI-1 renal; 67.3 µM in the experiment on HL-60(TB) leukemia; 54.3 µM with LOX IMVI melanoma; over 100 µM in the experiment on NCI-H23 lung; over 100 µM in the experiment with NCI-H460 lung. Further, the values for the TGI in the experiment on OVCAR-3 ovarian, in the experiment with SF-295 CNS and in the experiment on SK-MEL-28 melanoma were over 100 µM, 45.8 µM and 40.4 µM, respectively.

Consider `CN(C)CC1CCC/C1=N\O` (stereo unspecified), for which the TGI with ACHN renal, in the experiment on CAKI-1 renal, with LOX IMVI melanoma, in the experiment with NCI-H23 lung, with NCI-H460 lung and in the experiment with OVCAR-3 ovarian was over 100 µM throughout. Moreover, the TGI in the experiment on SF-295 CNS, with SK-MEL-28 melanoma and in the experiment on SR leukemia was over 100 µM throughout.

In the case of `COc1cc2ncnc(Nc3ccc(F)c(Cl)c3)c2cc1NC(=O)/C=C/CN1CCCCC1`, the GI50 with ACHN renal is < 0.01 µM and 0.00256 µM; with HL-60(TB) leukemia, 1.65 µM and 0.814 µM; in the experiment on LOX IMVI melanoma, 1.75 µM and 1.69 µM; in the experiment with NCI-H23 lung, 2.65 µM and 2.54 µM; with NCI-H460 lung, 2.18 µM and 2.4 µM; in the experiment with OVCAR-3 ovarian, 1.14 µM and 1.21 µM. Moreover, the GI50 in the experiment with SF-295 CNS is 1.78 µM and 2.44 µM; in the experiment with SK-MEL-28 melanoma, 1.79 µM and 1.65 µM. In addition, the TGI with ACHN renal is 1.76 µM and 1.48 µM; with CAKI-1 renal, 2.81 µM and 3.43 µM; in the experiment with HL-60(TB) leukemia it was 3.64 µM and 3.11 µM; with LOX IMVI melanoma, 3.27 µM and 3.24 µM; with NCI-H23 lung, 7.81 µM and > 8.79 µM; in the experiment on NCI-H460 lung, 6.22 µM and 7 µM. For the same compound, the TGI in the experiment on OVCAR-3 ovarian was 2.45 µM and 3.24 µM; with SF-295 CNS it was 4.03 µM and > 7.08 µM; with SK-MEL-28 melanoma, 3.36 µM and 3.14 µM.

Regarding `Cc1cc(S(=O)(=O)NC#N)c(S/C(=N\Nc2ccc([N+](=O)[O-])cc2)c2ccc(Cl)cc2)cc1Cl`, the GI50 is 34.1 µM in the experiment on ACHN renal; 36.1 µM with CAKI-1 renal; 36.2 µM in the experiment with HL-60(TB) leukemia; 30.1 µM in the experiment with LOX IMVI melanoma; 77.9 µM in the experiment on NCI-H23 lung; 26.7 µM in the experiment on NCI-H460 lung. Besides, the values for the GI50 in the experiment on OVCAR-3 ovarian, with SF-295 CNS and with SK-MEL-28 melanoma were 21.2 µM, 22.7 µM and 31.2 µM, respectively. Besides, the total growth inhibition concentration (TGI) in the experiment with ACHN renal, with CAKI-1 renal, in the experiment on HL-60(TB) leukemia, in the experiment with LOX IMVI melanoma, in the experiment on NCI-H23 lung and in the experiment with NCI-H460 lung was over 100 µM each time. Besides, the TGI in the experiment with OVCAR-3 ovarian was over 100 µM; with SF-295 CNS, 65.5 µM; in the experiment on SK-MEL-28 melanoma, over 100 µM.

With `Nc1ccccc1C#C/C=C\C#Cc1ccccc1`, the GI50 is 23.9 µM with ACHN renal; 1.44 µM in the experiment on CAKI-1 renal; 13.7 µM in the experiment on HL-60(TB) leukemia; 10.3 µM in the experiment with LOX IMVI melanoma; 14.8 µM with NCI-H23 lung; 18.4 µM with NCI-H460 lung. In addition, the GI50 was 4.14 µM in the experiment with OVCAR-3 ovarian, 11.3 µM in the experiment on SF-295 CNS and 11.7 µM with SK-MEL-28 melanoma. The concentration for total growth inhibition (TGI) in the experiment on ACHN renal was 75 µM; with CAKI-1 renal, 8.35 µM; with HL-60(TB) leukemia it was over 100 µM; in the experiment with LOX IMVI melanoma, 24.1 µM; in the experiment with NCI-H23 lung, 35.9 µM; in the experiment with NCI-H460 lung, 52.6 µM. Moreover, the values for the TGI in the experiment with OVCAR-3 ovarian, in the experiment with SF-295 CNS and in the experiment with SK-MEL-28 melanoma were 14.8 µM, 31.8 µM and 27.1 µM, respectively.

Consider `CC1=C(C(=O)Nc2cccc(Cl)c2)C(c2ccccc2F)C(C(=O)Nc2cccc(Cl)c2)=C(C)N1`, for which the concentration for total growth inhibition (TGI) worked out at 46 µM in the experiment with ACHN renal; 35.9 µM with CAKI-1 renal; 18.7 µM in the experiment on HL-60(TB) leukemia; 21.1 µM with LOX IMVI melanoma; 26.5 µM in the experiment with NCI-H23 lung; 24.1 µM in the experiment with NCI-H460 lung. Also, the TGI is 25.2 µM with OVCAR-3 ovarian, 36.8 µM in the experiment with SF-295 CNS and 23 µM in the experiment with SK-MEL-28 melanoma.

For `CC[PH+](CC)CC.O=COC1OC([S-])C(OC=O)C(OC=O)C1OC=O.[Au+]` (stereo unspecified), the GI50 with ACHN renal is 1.78 µM; with CAKI-1 renal, 1.71 µM; in the experiment on HL-60(TB) leukemia it was 2.6 µM; in the experiment on LOX IMVI melanoma it was 0.902 µM; in the experiment on NCI-H23 lung, 1.47 µM; in the experiment on NCI-H460 lung, 1.71 µM. For the same compound, the GI50 in the experiment on OVCAR-3 ovarian was 1.43 µM; with SF-295 CNS, 1.8 µM; in the experiment with SK-MEL-28 melanoma it was 0.907 µM. Further, the TGI with ACHN renal amounted to 3.16 µM; in the experiment with CAKI-1 renal it was 3.08 µM; in the experiment on HL-60(TB) leukemia, 6.6 µM; in the experiment with LOX IMVI melanoma it was 2.41 µM; with NCI-H23 lung, 3.22 µM; in the experiment on NCI-H460 lung, 3.69 µM. The TGI in the experiment with OVCAR-3 ovarian is 2.99 µM; with SF-295 CNS, 3.24 µM; in the experiment on SK-MEL-28 melanoma, 2.15 µM.

On to `CC(C)c1cccc(C(C)C)c1NC(=O)/C(CC(=O)CC(c1ccccc1)c1c(O)c2ccccc2oc1=O)=N/O` (stereo unspecified), for which the TGI in the experiment with ACHN renal, with CAKI-1 renal, in the experiment on HL-60(TB) leukemia, in the experiment on LOX IMVI melanoma, in the experiment with NCI-H23 lung and in the experiment on NCI-H460 lung was over 100 µM throughout. Also, the TGI with OVCAR-3 ovarian, in the experiment on SF-295 CNS and with SK-MEL-28 melanoma was over 100 µM each time.
